According to patent publication US20250092039A1, “GLUTARIMIDE-CONTAINING PAN-KRAS-MUTANT DEGRADER COMPOUNDS AND USES THEREOF” (Tiger Biotherapeutics Inc., priority 2022, published 2025):

How the values were obtained:
KRAS G12V = KRAS G12V (Homo sapiens (Human), UniProt P01116, G12V); assay: KRAS G12V degradation in SW620 cells (Western blot, DC50); type: cell-based; conditions: 24 hours
Experimental: SW620 (KRAS G12V homozygous), AsPC1 (KRAS G12D homozygous), MIA PaCa2 (KRAS G12C homozygous), A549 (KRAS G12S homozygous) and MCF7 (KRAS WT) cells were obtained from American Type Culture Collection (ATCC). […] The following day, the test compound was administered to the cells by using 1000× compound stock solution prepared in DMSO at various concentrations. After administration of the compound, the cells were then incubated at 37° C. for 24 hours. Upon completion, the cells were washed with PBS and protein was collected in Laemmli sample buffer (1×; VWR International). Proteins in cell lysate were separated by SDS-PAGE and transferred to Odyssey nitrocellulose membranes (Licor) with iblot® dry blotting transfer system (ThermoFisher). Nonspecific binding was blocked by incubating membranes with Intercept Blocking Buffer (Licor) for 1 hour at room temperature with gentle shaking. […] After washing 3 times with TBS-T, the membranes were incubated with IRDye® 800CW goat anti-rabbit IgG (1:20,000, Licor) and IRDye® 680RD goat anti-mouse IgG (1:20,000, Licor) for 1 hour. After TBS-T washes, membranes were rinsed in TBS and Western blot images were acquired by Odyssey CLx (LI-COR Biosciences).
The signal intensity of target proteins was calculated using ImageStudio software. KRAS fluorescent intensity (FLU) from DMSO (vehicle) treatment was set as 100%. Relative KRAS expression level was determined by the following formula: […]
The percentage of KRAS expression was calculated using Microsoft Excel. The half-maximal degradation concentration (DCso) values were generated by GraphPad Prism (Version 9) using the dose-response equation of variable slope (four parameters).

KRAS-G12V/RAF1 = KRAS-G12V/RAF1 (Homo sapiens (Human), UniProt P01116, G12V); assay: KRAS/RAF1 binding inhibition assay (AlphaScreen)
Experimental: Binding affinity against GTP-bound KRAS of the compounds disclosed herein was measured by monitoring the interaction of guanosine 5′-[β,γ-imido]triphosphate-bound (GppNHp-bound) KRAS with the RBD domain of RAF1 in the presence of the test compound. […] The test compounds in 2% DMSO (final concentration) at various concentrations were then added to the reaction mixture and incubated for 60 minutes at 4° C.
Raw ALphaScreen data were converted to a percentage of inhibition (relative to DMSO) using the following equations: • a) For a given test compound concentration X: […]
The IC50 values were determined by nonlinear regression of plots of [inhibitor] vs. percentage of inhibition with variable slope, analyzed using GraphPad Prism (Version 9).

Sequence of KRAS G12V (P01116-2 other isoform, or with tags, fused parts or gaps G12V): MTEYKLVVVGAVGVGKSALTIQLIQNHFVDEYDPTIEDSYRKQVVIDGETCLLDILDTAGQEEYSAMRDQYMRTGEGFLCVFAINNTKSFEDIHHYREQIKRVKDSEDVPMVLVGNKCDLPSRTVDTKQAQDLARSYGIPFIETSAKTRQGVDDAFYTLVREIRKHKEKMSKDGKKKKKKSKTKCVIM
Sequence of KRAS-G12V/RAF1 (P01116-2 other isoform, or with tags, fused parts or gaps G12V): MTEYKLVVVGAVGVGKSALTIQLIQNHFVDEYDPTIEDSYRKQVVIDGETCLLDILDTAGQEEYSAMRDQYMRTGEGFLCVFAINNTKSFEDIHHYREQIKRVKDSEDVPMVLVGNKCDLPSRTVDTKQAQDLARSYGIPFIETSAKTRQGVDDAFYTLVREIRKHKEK

| DC50 (KRAS G12V) | IC50 (KRAS-G12V/RAF1) | SMILES |
| --- | --- | --- |
| < 1 nM | > 200 nM | CCc1c(F)ccc2cc(O)cc(-c3ncc4c(N5C[C@@H]6C[C@H](C5)[C@H](O)C6)nc(OCC5(CN6CCC(CN7CCN(c8ccc9c(c8)CN([C@H]8CCC(=O)NC8=O)C9=O)CC7)CC6)CC5)nc4c3F)c12 (stereo in doubt) [Compound 96, (S)-3-(5-(4-((1-((1-(((7-(8-ethyl-7-fluoro-3-hydroxynaphthalen-1-yl)-8-fluoro-4-((1R,SR,6R)-6-hydroxy-3-azabicyclo[3.2.1]octan-3-yl)pyrido[4,3-d]pyrimidin-2-yl)oxy)methyl)cyclopropyl)methyl)piperidin-4-yl)methyl)piperazin-1-yl)-1-oxoisoindolin-2-yl)piperidine-2,6-dione] |
| < 1 nM |  | CCc1c(F)ccc2cc(O)cc(-c3ncc4c(N5CCC[C@@](C)(O)C5)nc(OCC5(CN6CCC(N7CCN(c8ccc9c(c8)CN([C@H]8CCC(=O)NC8=O)C9=O)CC7)CC6)CC5)nc4c3F)c12 [Compound 7, (S)-3-(5-(4-(1-((1-(((7-(8-ethyl-7-fluoro-3-hydroxynaphthalen-1-yl)-8-fluoro-4-((R)-3-hydroxy-3-methylpiperidin-1-yl)pyrido[4,3-d]pyrimidin-2-yl)oxy)methyl)cyclopropyl)methyl)piperidin-4-yl)piperazin-1-yl)-1-oxoisoindolin-2-yl)piperidine-2.6-dione] |
| 1 to 10 nM |  | CCc1c(F)ccc2cc(O)cc(-c3ncc4c(N5CCCC6(CCO6)C5)nc(OCC5(CN6CCC(CN7CCN(c8ccc9c(c8)CN(C8CCC(=O)NC8=O)C9=O)CC7)CC6)CC5)nc4c3F)c12 [Compound 23, (3S)-3-(5-(4-((1-((1-(((7-(8-ethyl-7-fluoro-3-hydroxynaphthalen-1-yl)-8-fluoro-4-(1-oxa-6-azaspiro[3.5]nonan-6-yl)pyrido[4,3-d]pyrimidin-2-yl)oxy)methyl)cyclopropyl)methyl)piperidin-4-yl)methyl)piperazin-1-yl)-1-oxoisoindolin-2-yl)piperidine-2,6-dione] |
| 1 to 10 nM |  | CCc1cccc2cc(O)cc(-c3ncc4c(N(C)C5C[C@H]5F)nc(OCC5(CN6CCC(CN7CCN(c8ccc9c(c8)CN([C@H]8CCC(=O)NC8=O)C9=O)CC7)CC6)CC5)nc4c3F)c12 (stereo partly drawn) [Compound 29, (S)-3-(5-(4-((1-((1-(((7-(8-ethyl-3-hydroxynaphthalen-1-yl)-8-fluoro-4-(((1R,2R)-2-fluorocyclopropyl)(methyl)amino)pyrido[4,3-d]pyrimidin-2-yl)oxy)methyl)cyclopropyl)methyl)piperidin-4-yl)methyl)piperazin-1-yl)-1-oxoisoindolin-2-yl)piperidine-2,6-dione] |
| 1 to 10 nM |  | CCc1c(F)ccc2cc(O)cc(-c3ncc4c(N5CCC[C@]6(CCO6)C5)nc(OCC5(CN6CCC(CN7CCN(c8ccc9c(c8)CN(C8CCC(=O)NC8=O)C9=O)CC7)CC6)CC5)nc4c3F)c12 (stereo partly drawn) [Compound 44, (S)-3-(5-(4-((1-((1-(((7-(8-ethyl-7-fluoro-3-hydroxynaphthalen-1-yl)-8-fluoro-4-((S)-1-oxa-6-azaspiro[3.5]nonan-6-yl)pyrido[4,3-d]pyrimidin-2-yl)oxy)methyl)cyclopropyl)methyl)piperidin-4-yl)methyl)piperazin-1-yl)-1-oxoisoindolin-2-yl)piperidine-2,6-dione] |
| > 100 nM |  | CCc1c(F)ccc2cc(O)cc(-c3ncc4c(N5CCC[C@@]6(CCO6)C5)nc(OCC5(CN6CCC(CN7CCN(c8ccc9c(c8)CN(C8CCC(=O)NC8=O)C9=O)CC7)CC6)CC5)nc4c3F)c12 (stereo partly drawn) [Compound 45, (S)-3-(5-(4-((1-((1-(((7-(8-ethyl-7-fluoro-3-hydroxynaphthalen-1-yl)-8-fluoro-4-((R)-1-oxa-6-azaspiro[3.5]nonan-6-yl)pyrido[4,3-d]pyrimidin-2-yl)oxy)methyl)cyclopropyl)methyl)piperidin-4-yl)methyl)piperazin-1-yl)-1-oxoisoindolin-2-yl)piperidine-2,6-dione] |
| 1 to 10 nM | > 200 nM | CCc1c(F)ccc2cc(O)cc(-c3ncc4c(N5CCCn6nc(C(=O)N(C)C)c(Cl)c6C5)nc(OCC5(CN6CCC7(CC6)CC(CN6CCN(c8ccc9c(c8)CN([C@H]8CCC(=O)NC8=O)C9=O)CC6)C7)CC5)nc4c3F)c12 [Compound 94, (S)-3-chloro-5-(2-((1-((2-((4-(2-(2,6-dioxopiperidin-3-yl)-1-oxoisoindolin-5-yl)piperazin-1-yl)methyl)-7-azaspiro[3.5]nonan-7-yl)methyl)cyclopropyl)methoxy)-7-(8-ethyl-7-fluoro-3-hydroxynaphthalen-1-yl)-8-fluoropyrido[4,3-d]pyrimidin-4-yl)-N,N-dimethyl-5,6,7,8-tetrahydro-4H-pyrazolo[1,5-a][1,4]diazepine-2-carboxamide] |
| > 100 nM |  | CCc1c(F)ccc2cc(O)cc(-c3ncc4c(N5CCCNC(=O)C5)nc(OCC5(CN6CCC(CN7CCN(c8ccc9c(c8)CN([C@H]8CCC(=O)NC8=O)C9=O)CC7)CC6)CC5)nc4c3F)c12 [Compound 95, (S)-3-(5-(4-((1-((1-(((7-(8-ethyl-7-fluoro-3-hydroxynaphthalen-1-yl)-8-fluoro-4-(3-oxo-1,4-diazepan-1-yl)pyrido[4,3-d]pyrimidin-2-yl)oxy)methyl)cyclopropyl)methyl)piperidin-4-yl)methyl)piperazin-1-yl)-1-oxoisoindolin-2-yl)piperidine-2,6-dione] |
| > 100 nM | > 200 nM | CCc1c(F)ccc2cc(O)cc(-c3ncc4c(N5CCCC6(CC(O)C6)C5)nc(OCC5(CN6CCC7(CC6)CC(CN6CCN(c8ccc9c(c8)CN([C@H]8CCC(=O)NC8=O)C9=O)CC6)C7)CC5)nc4c3F)c12 [Compound 97, (S)-3-(5-(4-((7-((1-(((7-(8-ethyl-7-fluoro-3-hydroxynaphthalen-1-yl)-8-fluoro-4-(2-hydroxy-6-azaspiro[3.5]nonan-6-yl)pyrido[4,3-d]pyrimidin-2-yl)oxy)methyl)cyclopropyl)methyl)-7-azaspiro[3.5]nonan-2-yl)methyl)piperazin-1-yl)-1-oxoisoindolin-2-yl)piperidine-2,6-dione] |
| 1 to 10 nM | > 200 nM | CCc1c(F)ccc2cc(O)cc(-c3ncc4c(N5CCCC6(CC(O)C6)C5)nc(OCC5(CN6CCC(CN7CCN(c8ccc9c(c8)CN([C@H]8CCC(=O)NC8=O)C9=O)CC7)CC6)CC5)nc4c3F)c12 (stereo partly drawn) [Compound 98, (S)-3-(5-(4-((1-((1-(((7-(8-ethyl-7-fluoro-3-hydroxynaphthalen-1-yl)-8-fluoro-4-(2-hydroxy-6-azaspiro[3.5]nonan-6-yl)pyrido[4,3-d]pyrimidin-2-yl)oxy)methyl)cyclopropyl)methyl)piperidin-4-yl)methyl)piperazin-1-yl)-1-oxoisoindolin-2-yl)piperidine-2,6-dione] |
|  | 20 to 200 nM | CCc1c(F)ccc2cc(O)cc(-c3ncc4c(N5CCOCC6(CCO6)C5)nc(OCC5(CN6CCC(CN7CCN(c8ccc9c(c8)CN([C@H]8CCC(=O)NC8=O)C9=O)CC7)CC6)CC5)nc4c3F)c12 (stereo partly drawn) [Compound 125, (3S)-3-(5-(4-((1-((1-(((7-(8-ethyl-7-fluoro-3-hydroxynaphthalen-1-yl)-8-fluoro-4-(1,6-dioxa-9-azaspiro[3.6]decan-9-yl)pyrido[4,3-d]pyrimidin-2-yl)oxy)methyl)cyclopropyl)methyl)piperidin-4-yl)methyl)piperazin-1-yl)-1-oxoisoindolin-2-yl)piperidine-2,6-dione] |
| > 100 nM |  | CCc1cccc2cc(O)cc(-c3ncc4c(N5CCNC(=O)CC5)nc(OCC5(CN6CCC(CN7CCN(c8ccc9c(c8)CN([C@H]8CCC(=O)NC8=O)C9=O)CC7)CC6)CC5)nc4c3F)c12 [Compound 127, (S)-3-(5-(4-((1-((1-(((7-(8-ethyl-3-hydroxynaphthalen-1-yl)-8-fluoro-4-(5-oxo-1,4-diazepan-1-yl)pyrido[4,3-d]pyrimidin-2-yl)oxy)methyl)cyclopropyl)methyl)piperidin-4-yl)methyl)piperazin-1-yl)-1-oxoisoindolin-2-yl)piperidine-2,6-dione] |
|  | 20 to 200 nM | CCc1cccc2cc(O)cc(-c3ncc4c(N5CCC[C@@](C)(O)C5)nc(OCC5(CN6CC7(CCC(F)(CN8CCN(c9ccc%10c(c9)CN([C@H]9CCC(=O)NC9=O)C%10=O)CC8)CC7)C6)CC5)nc4c3F)c12 [Compound 179, (S)-3-(5-(4-((2-((1-(((7-(8-ethyl-3-hydroxynaphthalen-1-yl)-8-fluoro-4-((R)-3-hydroxy-3-methylpiperidin-1-yl)pyrido[4,3-d]pyrimidin-2-yl)oxy)methyl)cyclopropyl)methyl)-7-fluoro-2-azaspiro[3.5]nonan-7-yl)methyl)piperazin-1-yl)-1-oxoisoindolin-2-yl)piperidine-2,6-dione] |
